pIC50: −log10 of the molar value. Converted amounts (≈) assume the structure as drawn.
Columns and labels:
[1] = organism: Homo sapiens; test: Inhibition of ROS production in human blood; assay type: functional
[2] = organism: Homo sapiens; test: Potency index, ratio of ibuprofen IC50 to test compound IC50 for inhibition of ROS production in human blood; assay type: functional
[3] = organism: Homo sapiens; test: Inhibition of ROS production in human blood at 25 ug/ml relative to control; assay type: functional
[4] = molecular target: Albumin (Bos taurus, UniProt P02769); test: Inhibition of bovine serum albumin denaturation incubated for 15 mins
[5] = molecular target: T1, Prostaglandin G/H synthase 2 (Homo sapiens, UniProt P35354); test: Inhibition of human recombinant COX-2 by enzyme immunoassay
T1 sequence (P35354 whole entry): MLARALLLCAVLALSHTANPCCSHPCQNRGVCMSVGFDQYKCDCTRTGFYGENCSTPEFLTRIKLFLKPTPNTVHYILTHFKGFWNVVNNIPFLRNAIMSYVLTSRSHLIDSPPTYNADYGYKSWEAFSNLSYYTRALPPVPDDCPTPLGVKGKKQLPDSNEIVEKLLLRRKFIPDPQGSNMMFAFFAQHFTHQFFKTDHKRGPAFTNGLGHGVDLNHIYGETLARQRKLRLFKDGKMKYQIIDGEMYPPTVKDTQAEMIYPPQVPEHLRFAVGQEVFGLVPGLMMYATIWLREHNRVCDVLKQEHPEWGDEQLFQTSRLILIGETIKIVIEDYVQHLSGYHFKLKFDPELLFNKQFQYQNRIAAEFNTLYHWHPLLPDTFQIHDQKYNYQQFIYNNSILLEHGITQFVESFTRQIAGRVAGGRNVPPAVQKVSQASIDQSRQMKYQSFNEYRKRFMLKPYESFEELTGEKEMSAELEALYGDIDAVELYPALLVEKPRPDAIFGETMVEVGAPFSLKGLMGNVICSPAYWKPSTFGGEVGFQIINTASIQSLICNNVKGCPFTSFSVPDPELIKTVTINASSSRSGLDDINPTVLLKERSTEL

[6] = molecular target: T1, Prostaglandin G/H synthase 2; test: Inhibition of COX-2 (unknown origin) by colorimetric assay
[7] = molecular target: T2, Prostaglandin G/H synthase 2 (Homo sapiens) (UniProt P35354); test: Potency index, ratio of celecoxib IC50 to test compound IC50 for inhibition of COX-2 (unknown origin) by colorimetric assay
T2 sequence (whole entry): T1 sequence (P35354 whole entry)

[8] = tested on: Rattus norvegicus; test: Antiinflammatory activity against rat model of carrageenan induced paw edema assessed as reduction in TNFalpha level in plasma at 50 mg/kg, po pretreated for 1 hr followed by carrageenan addition and measured after 6 hrs by ELISA relative to control; assay type: functional; conditions: time 7 hrs
[9] = tested on: Rattus norvegicus; test: Antiinflammatory activity against rat model of carrageenan induced paw edema assessed as reduction in IL-6 level in plasma at 50 mg/kg, po pretreated for 1 hr followed by carrageenan addition and measured after 6 hrs by ELISA relative to control; assay type: functional; conditions: time 7 hrs
[10] = tested on: Rattus norvegicus; test: Antiinflammatory activity against rat model of carrageenan induced paw edema assessed as inhibition of edema at 50 mg/kg, po pretreated for 1 hr followed by carrageenan addition and measured after 1 to 6 hrs relative to control; assay type: functional; conditions: time 2-7 hrs
[11] = tested on: Rattus norvegicus; test: Antiinflammatory activity against rat model of carrageenan induced paw edema assessed as reduction in PGE2 level in plasma at 50 mg/kg, po pretreated for 1 hr followed by carrageenan addition and measured after 6 hrs by ELISA relative to control; assay type: functional; conditions: time 7 hrs
[12] = tested on: HCT-116; test: cells; conditions: Homo sapiens, HCT-116, 48 h
[13] = tested on: A549; test: cells; conditions: Homo sapiens, A549, 48 h
[14] = tested on: MCF7; test: cells; conditions: Homo sapiens, MCF7, 48 h
[15] = tested on: Rattus norvegicus; test: Antiinflammatory activity against rat model of carrageenan induced paw edema assessed as inhibition of edema measured after 1 to 6 hrs relative to control; assay type: functional; conditions: time 1-6 hrs

Chain of Albumin (P02769 whole entry): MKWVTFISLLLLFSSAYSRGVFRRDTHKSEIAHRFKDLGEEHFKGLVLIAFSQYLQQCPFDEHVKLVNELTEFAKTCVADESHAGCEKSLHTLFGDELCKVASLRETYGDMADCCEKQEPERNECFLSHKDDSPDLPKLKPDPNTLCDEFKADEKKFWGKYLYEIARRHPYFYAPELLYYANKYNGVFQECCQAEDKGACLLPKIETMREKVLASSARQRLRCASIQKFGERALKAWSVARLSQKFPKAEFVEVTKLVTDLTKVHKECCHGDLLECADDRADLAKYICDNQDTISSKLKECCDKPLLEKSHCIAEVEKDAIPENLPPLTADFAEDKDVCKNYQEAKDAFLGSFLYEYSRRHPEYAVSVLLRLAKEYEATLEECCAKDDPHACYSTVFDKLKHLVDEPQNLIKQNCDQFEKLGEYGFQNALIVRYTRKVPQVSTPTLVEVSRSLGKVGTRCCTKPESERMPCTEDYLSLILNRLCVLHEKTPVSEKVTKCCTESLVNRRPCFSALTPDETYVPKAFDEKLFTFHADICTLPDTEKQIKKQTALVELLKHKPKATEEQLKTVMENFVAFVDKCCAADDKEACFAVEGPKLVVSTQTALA

SMILES: Nc1cccc(OC(=O)c2ccncc2)c1
- IC50 [1]: 1.42 µg/mL (≈ 6.63 µM)
- Ratio IC50 [2]: 8
- inhibition in vivo at 25 µg/mL [3]: 95.9%

SMILES: COc1ccc(C2=NN(C(N)=O)C(c3cn(-c4ccccc4)nc3-c3ccccc3)C2)cc1 (stereo not drawn)
- pIC50 [4]: 4.36

SMILES: COc1cc(/C=c2\sc3nc(C45CC6CC(CC(C6)C4)C5)nn3c2=O)ccc1O
- pIC50 [5]: 4.30

SMILES: CCCCNc1cc(-c2n[nH]c(=S)n2-c2ccc(Br)cc2)cc(S(N)(=O)=O)c1Oc1ccccc1
- pIC50 [6]: 6.77
- Ratio IC50 [7]: 12

SMILES: COc1cc(C2CC(c3cccc(-n4cnnn4)c3)=NN2C(C)=O)cc(OC)c1OC (stereo not drawn)
- inhibition in vivo at 50 mg/kg [8]: 55.4%
- inhibition in vivo at 50 mg/kg [9]: 61.6%
- inhibition in vivo at 50 mg/kg [10]: 29.2%
- inhibition in vivo at 50 mg/kg [11]: 81%

SMILES: CCOc1ccc2nc(NC(=O)CSc3nnc(Cc4c[nH]c5ccccc45)o3)sc2c1
- pIC50 [12]: 5.19
- pIC50 [13]: 5.19

SMILES: CC(C)Cc1ccc(C(C)C(=O)O)cc1 (stereo not drawn) [IBUPROFEN]
- IC50 [1]: 11.2 µg/mL (≈ 54.3 µM)

SMILES: CCCCNc1cc(C(=O)n2nc(C)cc2-c2ccccc2)cc(S(N)(=O)=O)c1Oc1ccccc1
- pIC50 [6]: 6.49
- Ratio IC50 [7]: 12

SMILES: O=c1/c(=C/c2cccc(O)c2)sc2nc(C34CC5CC(CC(C5)C3)C4)nn12
- pIC50 [5]: 4.30

SMILES: CCOP(=O)(OCC)C(NC(=O)c1cc(-c2cccc3ccccc23)n(-c2ccc(F)cc2)n1)c1ccccc1 (stereo not drawn)
- pIC50 [14]: 5.36

SMILES: COc1cc(-c2cc(-c3cccc(-n4cnnn4)c3)no2)cc(OC)c1OC
- inhibition in vivo at 50 mg/kg [10]: 29.2%
- inhibition in vivo at 50 mg/kg [11]: 81%

SMILES: CCCC(=O)Nc1ccc(OC(=O)c2ccncc2)cc1
- IC50 [1]: 3.7 µg/mL (≈ 13 µM)
- inhibition in vivo at 25 µg/mL [3]: 85.4%

SMILES: COc1ccc(-c2cc(-c3ccc(F)cc3)n(-c3ccc(S(N)(=O)=O)cc3)n2)cc1
- inhibition (INH) [15]: 42.1%

Source: ChEMBL document CHEMBL5241111, “Non-steroidal anti-inflammatory drugs: recent advances in the use of synthetic COX-2 inhibitors” (RSC Med Chem, 2022)
